{
  "source": "patent US20210255193A1",
  "about": "“LYSINE REACTIVE PROBES AND USES THEREOF” (The Scripps Research Institute, priority 2017, published 2021)",
  "key": {"[1]": {"target": "T1, UBA2 SUMO-activating enzyme subunit 2 (Homo sapiens, UniProt Q9UBT2)", "T1 construct": "endogenous in cells; host or cells: MDA-MB-231 (soluble fraction of lysate)", "T1 sequence (Q9UBT2 1-640)": "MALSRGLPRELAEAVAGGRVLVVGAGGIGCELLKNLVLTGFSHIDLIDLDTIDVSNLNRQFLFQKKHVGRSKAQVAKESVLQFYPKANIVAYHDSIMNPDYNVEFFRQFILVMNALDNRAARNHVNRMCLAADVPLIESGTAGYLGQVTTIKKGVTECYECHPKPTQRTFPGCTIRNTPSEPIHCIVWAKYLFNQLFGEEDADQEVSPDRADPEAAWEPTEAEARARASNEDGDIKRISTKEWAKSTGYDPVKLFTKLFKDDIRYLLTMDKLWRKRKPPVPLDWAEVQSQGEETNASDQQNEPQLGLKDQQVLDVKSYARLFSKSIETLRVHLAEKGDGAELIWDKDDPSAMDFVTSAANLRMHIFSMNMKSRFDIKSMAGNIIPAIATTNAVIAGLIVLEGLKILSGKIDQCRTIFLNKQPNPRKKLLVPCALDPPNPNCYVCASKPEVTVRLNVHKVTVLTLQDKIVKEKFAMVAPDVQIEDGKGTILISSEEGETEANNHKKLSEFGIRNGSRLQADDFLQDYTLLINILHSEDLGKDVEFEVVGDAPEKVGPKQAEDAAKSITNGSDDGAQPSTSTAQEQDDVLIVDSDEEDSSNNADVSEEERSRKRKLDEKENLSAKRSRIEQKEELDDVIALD", "T1 sequence (Q9UBE0 1-346 partner)": "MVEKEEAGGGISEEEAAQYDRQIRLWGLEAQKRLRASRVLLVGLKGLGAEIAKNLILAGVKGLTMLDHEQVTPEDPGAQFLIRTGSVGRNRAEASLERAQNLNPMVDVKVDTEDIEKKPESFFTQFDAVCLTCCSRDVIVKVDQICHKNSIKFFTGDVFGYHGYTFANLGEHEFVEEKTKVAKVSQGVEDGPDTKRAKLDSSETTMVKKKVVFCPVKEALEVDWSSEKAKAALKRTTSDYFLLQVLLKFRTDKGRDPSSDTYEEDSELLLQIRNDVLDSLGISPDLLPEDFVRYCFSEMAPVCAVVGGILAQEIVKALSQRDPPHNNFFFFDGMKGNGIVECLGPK", "assay": "competitive isoTOP-ABPP", "assay_type": "binding", "details": "50 uM, in vitro", "outline": "(§1)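 Here, isoTOP-ABPP measures loss of STP-alkyne labeling at individual lysines after fragment exposure in lysate. Activated esters are dosed at 50 μM, guanidinylating agents at 100 μM; the probe follows at 0.1 mM for 1 h. R ≥4 marks a liganded lysine.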"}, "[2]": {"target": "T2, EHD1 EH domain-containing protein 1 (Homo sapiens, UniProt Q9H4M9)", "T2 construct": "endogenous in cells; host or cells: MDA-MB-231 (soluble fraction of lysate)", "T2 sequence (Q9H4M9 1-534)": "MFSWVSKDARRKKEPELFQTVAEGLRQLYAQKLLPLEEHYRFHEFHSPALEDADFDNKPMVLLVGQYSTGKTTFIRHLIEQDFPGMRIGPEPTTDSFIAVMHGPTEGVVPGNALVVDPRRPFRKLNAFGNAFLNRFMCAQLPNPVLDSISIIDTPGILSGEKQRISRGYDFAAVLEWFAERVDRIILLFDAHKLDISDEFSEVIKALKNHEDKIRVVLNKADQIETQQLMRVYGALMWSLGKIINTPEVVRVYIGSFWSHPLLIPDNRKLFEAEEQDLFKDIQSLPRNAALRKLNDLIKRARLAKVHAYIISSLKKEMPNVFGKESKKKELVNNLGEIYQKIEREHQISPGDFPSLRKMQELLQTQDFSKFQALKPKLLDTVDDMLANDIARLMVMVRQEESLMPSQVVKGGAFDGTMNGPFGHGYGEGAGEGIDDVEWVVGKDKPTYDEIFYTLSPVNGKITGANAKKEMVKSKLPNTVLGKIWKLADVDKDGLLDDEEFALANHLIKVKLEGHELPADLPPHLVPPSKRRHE", "assay": "competitive isoTOP-ABPP", "assay_type": "binding", "outline": "as §1"}},
  "data": [
    {"smiles": "O=C(CCc1coc2cc(F)ccc2c1=O)Oc1ccc([N+](=O)[O-])cc1[N+](=O)[O-]", "note": "[fragment 36, 2,4-Dinitrophenyl 3-(7-fluoro-4-oxo-4H-chromen-3-yl)propanoate]", "values": [
      {"measurement": "isoTOP-ABPP ratio (R) at liganded lysine Q9UBT2_K409", "setting": "[1]; sol, 231", "value": 3.6}
    ]},
    {"smiles": "O=C(Oc1c(F)c(F)c(C(F)(F)F)c(F)c1F)c1cc(C(F)(F)F)cc(C(F)(F)F)c1", "note": "[fragment 47, 2,3,5,6-Tetrafluoro-4-(trifluoromethyl)phenyl 3,5-bis(trifluoromethyl)benzoate]", "values": [
      {"measurement": "isoTOP-ABPP ratio, lysine Q9H4M9_K511", "setting": "[2]; 50 uM_231_sol_in vitro", "value": 20.0}
    ]},
    {"smiles": "O=C(CCc1cn(-c2ccccc2)nc1-c1ccccc1)Oc1c(F)c(F)c(F)c(F)c1F", "note": "[fragment 19, Pentafluorophenyl 3-(1,3-diphenyl-1H-pyrazol-4-yl)propanoate]", "values": [
      {"measurement": "R value (DMSO/fragment) for probe 1 labeling", "setting": "[2]; Q9H4M9_K511, 50 uM, 231 sol, in vitro", "value": 0.8}
    ]},
    {"smiles": "O=C(Oc1ccc([N+](=O)[O-])cc1[N+](=O)[O-])C(c1ccccc1)c1ccccc1", "note": "[fragment 30, 2,4-Dinitrophenyl 2,2-diphenylacetate]", "values": [
      {"measurement": "isoTOP-ABPP reactivity ratio at lysine Q9H4M9_K511", "setting": "[2]; 50 uM, 231 sol, in vitro", "value": 0.9},
      {"measurement": "isoTOP-ABPP reactivity ratio at lysine Q9UBT2_K409", "setting": "[1]; 231 sol", "value": 7.3}
    ]},
    {"smiles": "O=C(Oc1ccc([N+](=O)[O-])cc1[N+](=O)[O-])c1cc(C(F)(F)F)cc(C(F)(F)F)c1", "note": "[fragment 31, 2,4-Dinitrophenyl 3,5-bis(trifluoromethyl)benzoate]", "values": [
      {"measurement": "isoTOP-ABPP reactivity ratio at lysine Q9UBT2_K409", "setting": "[1]; 231 sol", "value": 6.2}
    ]},
    {"smiles": "CC(=O)Oc1ccc([N+](=O)[O-])cc1[N+](=O)[O-]", "note": "[fragment 43, 2,4-Dinitrophenyl acetate]", "values": [
      {"measurement": "isoTOP-ABPP ratio (R) at liganded lysine Q9H4M9_K511", "setting": "[2]; 50 uM, in vitro, sol, 231", "value": 20.0}
    ]},
    {"smiles": "O=C(Oc1c(F)c(F)c(F)c(F)c1F)C(c1ccccc1)c1ccccc1", "note": "[fragment 20, Pentafluorophenyl 2,2-diphenylacetate]", "values": [
      {"measurement": "R value (DMSO/fragment) for probe 1 labeling", "setting": "[1]; Q9UBT2_K409, 231 sol", "value": 4.1}
    ]},
    {"smiles": "Cn1cc(CC(=O)Oc2ccc([N+](=O)[O-])cc2[N+](=O)[O-])c2ccccc21", "note": "[fragment 32, 2,4-Dinitrophenyl 2-(1-methyl-1H-indol-3-yl)acetate]", "values": [
      {"measurement": "isoTOP-ABPP reactivity ratio at lysine Q9H4M9_K511", "setting": "[2]; 50 uM, 231 sol, in vitro", "value": 1.2}
    ]}
  ]
}
